Measured values taken from US20240417738A1, “IMMUNOTHERAPIES FOR THE TREATMENT OF CANCER” (Ohio State Innovation Foundation, priority 2021, published 2024).

Tests used:
MC38 cells = assay: Cell viability assay (MTS); type: cell-based, murine; conditions: (SEM)
Protocol: Cell Viability Assay. MC38 cells were seeded at 3000 cells/well in 96-well plates 24 hours before treatments. […] After 72 hour-treatment, cell viability was examined by CellTiter 96R AQueous One Solution (Promega, Madison, WI) per manufacturer protocol. The IC50 for R848 or IVM was determined by R programming.

[1] = Saturated solubility study in squalene NE and PBS; type: physicochemical; conditions: 2 mg/ml, room temperature, 24 hours
Protocol: In the saturated solubility study, R848 or IVM were dissolved in PBS or formulated in NE at 2 mg/ml and incubated at room temperature for 24 hours. Insoluble solid drugs were pelleted down by centrifugation. Supernatants were collected for concentration analysis. R848 concentrations were quantified by UV-Vis spectrometry at 320 nm using a NanoDrop 2000 spectrophotometer. IVM concentrations were quantified by high-performance liquid chromatography (HPLC) using an isocratic mobile phase composed of water/methanol/acetonitrile (8:36:56, v/v/v), an C18 column (Kromasil 150-C-18, 4.6×150 mm), and PDA detection at 230 nm.

[2] = test system: Calreticulin, Hmgb1, Lc3b mRNA in MC38 cells; assay: In vitro gene regulation by RT-qPCR; type: cell-based, murine; conditions: 8 μM, 24 hours
Protocol: MC38 cells were seeded at 3×10^5 cells/well in 6-well plates 24 hours before treatments. […] R848 and IVM were both treated at 8 μM, either as free drug solution or in squalene NE. Total RNA was extracted using TRI reagent (Zymo Research) per manufacturer protocol. cDNA was prepared by high-capacity cDNA reverse transcription kit (Invitrogen, Waltham, MA, USA), and real-time qPCR (RT-qPCR) was done using SsoAdvanced™ Universal SYBRR Green Supermix (Bio-Rad Laboratories, Hercules, CA) on a QuantStudio 7 Flex Real-time PCR System. RT-qPCR primers for murine Calreticulin, Hmgb1, Lc3b, and Actb were purchased from Sigma-Aldrich. Actb was selected as the housekeeping gene control. The relative amount of RNA level was calculated and compared according to the 2-ΔΔCt method.

| Structure (SMILES) | IC50 (MC38 cells; Mus musculus, MC-38, 72 hours) | Increase of solubility in squalene-based NE compared with PBS [1] | IC50 (MC38 cells; 72 hours) | Calreticulin mRNA level [2] |
| --- | --- | --- | --- | --- |
| CCOCc1nc2c(N)nc3ccccc3c2n1CC(C)(C)O [R848, 4-amino-2-ethoxymethyl-α, α-dimethyl-1H-imidazol[4,5-c]quinoli-ne-1-ethanol] | > 100 µM | 2 fold |  |  |
| CC[C@H](C)[C@H]1O[C@]2(CC[C@@H]1C)C[C@@H]1C[C@@H](C/C=C(\C)[C@@H](O[C@H]3C[C@H](OC)[C@@H](O[C@H]4C[C@H](OC)[C@@H](O)[C@H](C)O4)[C@H](C)O3)[C@@H](C)/C=C/C=C3\CO[C@@H]4[C@H](O)C(C)=C[C@@H](C(=O)O1)[C@]34O)O2 [IVM] |  | 100 fold | 10.9 ± 4.15 µM | did not show significant Calreticulin regulation |
